{
  "source": "patent US20080045584A1",
  "about": "“Use of Docetaxel for Treating Hepatocellular Carcinoma” (priority 1999, published 2008)",
  "key": {"Hep G2 cells [1]": {"tested_on": "Hep G2 cells", "test": "DNA fragmentation electrophoresis analysis", "assay_type": "cell-based, human", "conditions": "Hep G2, 0.1 and 1 μM, 72 hours", "procedure": "DNA fragmentation assessment was according to the method Herrmann et al, Nucleic Acids Res., 22, 5506-5507, 1994.\nBriefly, HEP G2 cells (2×10^7) were treated for 72 hours with paclitaxel and docetaxel as set out above and centrifuged. The thus obtained cell pellets were resuspended with NP-40 lysis buffer (1% NP-40 in 20 mM EDTA, 50 mM Tris-HCl, pH 7.5). After lysis of cells for a few seconds, the supernatants were collected (5 minutes at 1600×g). The extraction was repeated with the same lysis buffer. SDS (final concentration 1%) and RNase were added (final concentration 2.5 μg/μl) to supernatants and incubated for 2 hours at 56° C. followed by digestion with proteinase K (2.5 μg/μl) for 2 hours at 37° C. Then, the mixtures were added to 10 M ammonium acetate prior to 100% ethanol precipitation for 30 minutes at −20° C. The DNA was collected by centrifugation (10 min at 12000 ×g) followed by electrophoresis on 1.5% agarose gel.\nIn FIG. 3, M is a 100 base pair marker. […] Lanes 2 and 3 show mean paclitaxel (0.1 and 1 μM) treatment groups. Lanes 4 and 5 show mean docetaxel (0.1 and 1 μM) treatment groups."}, "[2]": {"tested_on": "hepatoma cell lines (Hep G2, Hep 3B, HA22T/VGH and Hepa 1-6)", "test": "Cell viability study: MTT assay, all lines (FIG. 1)", "assay_type": "cell-based"}, "Hep 3B cells [3]": {"tested_on": "Hep 3B cells", "conditions": "0.01 μM, 72 hours", "procedure": "(§1) The experiments detailed below involve human hepatoma cell lines Hep3B (ATCC designation HB 8064), HepG2 (ATCC designation HB 8065) and HA22T/VGH, and murine hepatoma cell line Hepa 1-6. These cells were cultured in DMEM (GIBCO, BRL) containing 10% fetal bovine serum (Hyclone), 0.01 mg/ml gentamycin and 0.1 mM non-essential amino acid. Cells were grown in a CO2 incubator at 37° C., with 5% CO2 and 95% filtered air.\n(§2) In the experiments detailed below the above hepatoma cells were treated with different concentrations of paclitaxel (0.001-10 μM) and docetaxel (0.001-10 μM) for 24 hours and 72 hours. Paclitaxel was dissolved in dimethylsulfoxide (DMSO) and docetaxel was dissolved in ethanol as stock solutions. The final concentration of vehicle was less than 0.1%.\n(§3) Cells were cultured in a 96 well cell culture cluster (COSTAR) at a density of 4×10^4 cells/ml. After drug treatment for 24 hours or 72 hours, medium was discarded and replaced with an equal volume (100 μl) of fresh medium containing MTT (0.456 mg/ml; 3-[4,5-Dimethylthiazol-2-yl]2,5-diphenyl-tetrazolium bromide) and incubated for 1.5 hours at 37° C. The fresh medium was then discarded, and 100 μl DMSO was then added. Cell viability was determined by colorimetric comparison by reading OD values from a microplate reader (SPECTRA MAX250) at an absorption wavelength of 570 nm.\n(§4) Data are the mean i standard error of mean from duplicate samples of three independent experiments."}, "Hepa 1-6 cells [4]": {"tested_on": "Hepa 1-6 cells", "conditions": "Hepa 1-6, 1 μM", "procedure": "as §1, §2, §3, §4"}, "Hep G2 cells [5]": {"tested_on": "Hep G2 cells", "test": "Propidium iodide (PI) exclusion assay, flow cytometry", "assay_type": "cell-based, human", "procedure": "(§5) Cells were grown on 5-cm^2 flasks (CORNING) and treated with paclitaxel and docetaxel as set out above. Propidium iodide (10 μg/ml) was then added for 15 minutes incubation at 37° C. Then, medium was collected prior to harvest of the adherent cells. Both suspended and attached cells were collected and resuspended with 500 μl PBS for flow cytometry analysis as set out below. Debris signals were removed by FSC-SSC gating.\n(§6) Cells (10000) were analyzed on a Becton Dickinson FACS Calibur flow cytometer using an argon-ion laser (15 mWatt) with incident beam at 488 nm. For PI exclusion assay, red fluorescence was collected through a 585 nm filter and the cell debris signals were removed by FSC-SSC gating. Data were acquired and analyzed using FACS/CELL Quest software on a Power Macintosh 7600/120 computer. Apoptotic cells and cells at specific cycle phases were determined by ModFit LT software.\n(§7) Data are mean±standard error of mean from duplicated sample of at least three independent experiments. Cells were treated with drugs for 24-72 hours, and membrane permeability was measured by flowcytometric analysis of propidium exclusion in viable hepatoma cells. Data are the percentage of cells with intact cell membrane as compared to control"}, "HA22T/VGH cells": {"tested_on": "HA22T/VGH cells", "test": "Propidium iodide (PI) exclusion assay, flow cytometry", "assay_type": "cell-based, human", "procedure": "as §5, §6, §7"}, "Hep 3B cells [6]": {"tested_on": "Hep 3B cells", "test": "Propidium iodide (PI) exclusion assay, flow cytometry", "assay_type": "cell-based, human", "procedure": "as §5, §6, §7"}, "Hepa 1-6 cells [7]": {"tested_on": "Hepa 1-6 cells", "test": "Propidium iodide (PI) exclusion assay, flow cytometry", "assay_type": "cell-based, murine", "procedure": "as §5, §6, §7"}, "Hepa 1-6 cells [8]": {"tested_on": "Hepa 1-6 cells", "test": "Flow cytometric analysis of DNA content (cell cycle, sub-G0/G1)", "assay_type": "cell-based, murine", "procedure": "Lysing buffer (0.5% Triton X-100, 0.2 μg/ml Na2EDTA.2H2O, and 1% bovine serum albumin in PBS) was added to the cell pellets which were then left on ice for 15 minutes. 100% methanol pre-cooled to −20° C. was then added to the mixture, which was then centrifuged at 300×g for 5 minutes. The supernatant was discarded and the cell pellet was washed with PBS. The washed pellet was stained with a DNA staining solution (50 μg/ml propidium iodide, and 5 kunitz/ml of RNase A) for 30 minutes at 4° C. in the dark. The DNA content of each cell was measured using a Becton Dickinson FACS Calibur flow cytometer as set out below.\nas §6\nTable 1 gives figures for cell membrane permeability of the hepatoma cells, following treatment with paclitaxel and docetaxel. Table 2 details the percentage of apoptotic (sub-G0/G1) cells found after paclitaxel and docetaxel treatment."}},
  "note": "Like-named read-outs stand apart in the source and are kept apart here.",
  "data": [
    {"smiles": "CC(=O)O[C@@]12CO[C@@H]1C[C@H](O)[C@@]1(C)C(=O)[C@H](O)C3=C(C)[C@@H](OC(=O)[C@H](O)[C@@H](NC(=O)OC(C)(C)C)c4ccccc4)C[C@@](O)([C@@H](OC(=O)c4ccccc4)[C@H]21)C3(C)C", "note": "[Docetaxel]", "values": [
      {"measurement": "DNA fragmentation (agarose gel, FIG. 3)", "setting": "Hep G2 cells [1]", "result": "induced DNA fragmentation"},
      {"measurement": "cell viability compared with paclitaxel (FIG. 1)", "setting": "[2]; 0.01 and 0.1 μM, in nearly every case", "result": "decreased viability"},
      {"measurement": "in vitro activity against HCC cells compared with paclitaxel", "setting": "[2]; concentrations of up to 1 μM", "result": "significantly higher"},
      {"measurement": "reduction of viability", "setting": "Hep 3B cells [3]", "result": 37.06, "unit": "%"},
      {"measurement": "maximum cytotoxicity", "setting": "Hepa 1-6 cells [4]; 24 hours", "result": 65.34, "unit": "%"},
      {"measurement": "maximum cytotoxicity", "setting": "Hepa 1-6 cells [4]; 72 hours", "result": 30.71, "unit": "%"},
      {"measurement": "percentage of cells with intact cell membrane as compared to control", "setting": "Hep G2 cells [5]; Hep G2, 24 hrs, 0.01 μM", "result": "94.86 ± 1.3", "unit": "%"},
      {"measurement": "percentage of cells with intact cell membrane as compared to control", "setting": "Hep G2 cells [5]; Hep G2, 24 hrs, 0.1 μM", "result": "85.49 ± 1.2", "unit": "%"},
      {"measurement": "percentage of cells with intact cell membrane as compared to control", "setting": "Hep G2 cells [5]; Hep G2, 24 hrs, 1 μM", "result": "81.24 ± 3.2", "unit": "%"},
      {"measurement": "percentage of cells with intact cell membrane as compared to control", "setting": "Hep G2 cells [5]; Hep G2, 72 hrs, 0.01 μM", "result": "61.06 ± 9.6", "unit": "%"},
      {"measurement": "percentage of cells with intact cell membrane as compared to control", "setting": "Hep G2 cells [5]; Hep G2, 72 hrs, 0.1 μM", "result": "40.03 ± 9.0", "unit": "%"},
      {"measurement": "percentage of cells with intact cell membrane as compared to control", "setting": "Hep G2 cells [5]; Hep G2, 72 hrs, 1 μM", "result": "27.42 ± 8.8", "unit": "%"},
      {"measurement": "percentage of cells with intact cell membrane as compared to control", "setting": "HA22T/VGH cells; 24 hrs, 0.01 μM", "result": "98.66 ± 9.0", "unit": "%"},
      {"measurement": "percentage of cells with intact cell membrane as compared to control", "setting": "HA22T/VGH cells; 24 hrs, 0.1 μM", "result": "38.71 ± 11.2", "unit": "%"},
      {"measurement": "percentage of cells with intact cell membrane as compared to control", "setting": "HA22T/VGH cells; 24 hrs, 1 μM", "result": "40.79 ± 5.0", "unit": "%"},
      {"measurement": "percentage of cells with intact cell membrane as compared to control", "setting": "HA22T/VGH cells; 72 hrs, 0.01 μM", "result": "55.44 ± 5.6", "unit": "%"},
      {"measurement": "percentage of cells with intact cell membrane as compared to control", "setting": "HA22T/VGH cells; 72 hrs, 0.01 μM, listed as docetaxel", "result": 55.44, "unit": "%"},
      {"measurement": "percentage of cells with intact cell membrane as compared to control", "setting": "HA22T/VGH cells; 72 hrs, 0.1 μM", "result": "21.24 ± 0.4", "unit": "%"},
      {"measurement": "percentage of cells with intact cell membrane as compared to control", "setting": "HA22T/VGH cells; 72 hrs, 1 μM", "result": "22.03 ± 3.1", "unit": "%"},
      {"measurement": "percentage of cells with intact cell membrane as compared to control", "setting": "Hep 3B cells [6]; 24 hrs, 0.01 μM", "result": "93.80 ± 10.7", "unit": "%"},
      {"measurement": "percentage of cells with intact cell membrane as compared to control", "setting": "Hep 3B cells [6]; 24 hrs, 0.1 μM", "result": "57.41 ± 6.8", "unit": "%"},
      {"measurement": "percentage of cells with intact cell membrane as compared to control", "setting": "Hep 3B cells [6]; 24 hrs, 1 μM", "result": "57.39 ± 4.3", "unit": "%"},
      {"measurement": "percentage of cells with intact cell membrane as compared to control", "setting": "Hep 3B cells [6]; 72 hrs, 0.01 μM", "result": "36.81 ± 14.7", "unit": "%"},
      {"measurement": "percentage of cells with intact cell membrane as compared to control", "setting": "Hep 3B cells [6]; 72 hrs, 0.1 μM", "result": "36.25 ± 13.5", "unit": "%"},
      {"measurement": "percentage of cells with intact cell membrane as compared to control", "setting": "Hep 3B cells [6]; 72 hrs, 1 μM", "result": "20.25 ± 14.4", "unit": "%"},
      {"measurement": "percentage of cells with intact cell membrane as compared to control", "setting": "Hepa 1-6 cells [7]; Hepa 1-6, 24 hrs, 0.01 μM", "result": "94.45 ± 1.9", "unit": "%"},
      {"measurement": "percentage of cells with intact cell membrane as compared to control", "setting": "Hepa 1-6 cells [7]; Hepa 1-6, 24 hrs, 0.1 μM", "result": "83.35 ± 7.2", "unit": "%"},
      {"measurement": "percentage of cells with intact cell membrane as compared to control", "setting": "Hepa 1-6 cells [7]; Hepa 1-6, 24 hrs, 1 μM", "result": "81.88 ± 8.7", "unit": "%"},
      {"measurement": "percentage of cells with intact cell membrane as compared to control", "setting": "Hepa 1-6 cells [7]; Hepa 1-6, 72 hrs, 0.01 μM", "result": "77.18 ± 1.4", "unit": "%"},
      {"measurement": "percentage of cells with intact cell membrane as compared to control", "setting": "Hepa 1-6 cells [7]; Hepa 1-6, 72 hrs, 0.1 μM", "result": "43.94 ± 3.4", "unit": "%"},
      {"measurement": "percentage of cells with intact cell membrane as compared to control", "setting": "Hepa 1-6 cells [7]; Hepa 1-6, 72 hrs, 1 μM", "result": "38.90 ± 4.2", "unit": "%"},
      {"measurement": "% of apoptotic (sub-G0/G1) cells", "setting": "Hepa 1-6 cells [8]; Hepa 1-6, 24 hrs, 0.01 mM (text: μM)", "result": 52.81, "unit": "%"},
      {"measurement": "% of apoptotic (sub-G0/G1) cells", "setting": "Hepa 1-6 cells [8]; Hepa 1-6, 24 hrs, 0.1 mM (text: μM)", "result": 50.76, "unit": "%"},
      {"measurement": "% of apoptotic (sub-G0/G1) cells", "setting": "Hepa 1-6 cells [8]; Hepa 1-6, 24 hrs, 1 mM (text: μM)", "result": 53.8, "unit": "%"},
      {"measurement": "% of apoptotic (sub-G0/G1) cells", "setting": "Hepa 1-6 cells [8]; Hepa 1-6, 72 hrs, 0.01 mM (text: μM)", "result": 31.25, "unit": "%"},
      {"measurement": "% of apoptotic (sub-G0/G1) cells", "setting": "Hepa 1-6 cells [8]; Hepa 1-6, 72 hrs, 0.1 mM (text: μM)", "result": 53.95, "unit": "%"},
      {"measurement": "% of apoptotic (sub-G0/G1) cells", "setting": "Hepa 1-6 cells [8]; Hepa 1-6, 72 hrs, 1 mM (text: μM)", "result": 62.49, "unit": "%"}
    ]}
  ]
}
